Entries after “also recorded” stand apart in the source; their conditions may differ. The star is where a group is joined. Cbz = O=C(OCc1ccccc1)*; CH2F = FC*
What was measured:
[1] = test system: 4T1 cells; test: Lysis of 4T1 cells by activated NK cells treated with inhibitors; assay type: cell-based, mouse; conditions: E/T ratio 25 to 1
Experimental: (§1) The cytolytic activity of resting and activated NK cells was evaluated against 4T1 target cells. The activated NK cells were treated with inhibitors of Perforin maturation (concanamycin A), GraB (Z-AAD-FMK), PI3K (wortmannin), MEK1 kinase (PD98059), S6 kinase (rapamycin) and JNK (SP) to assess the role of cytotoxic granules. The E/T ratio was 25 to 1, and results shown are from one representative donor (out of three donors). […] 4T1 target cells were treated with Apo2L/TRAIL protein (100 ng/ml) or with activated NK cells (“Act NK”) for 30 minutes, 1 hour or 4 hours. The E/T ratio was 10:1. Extracts of the 4T1 cells were analysed by SDS-PAGE and immunoblot analysis for pro-caspase-3, cleaved caspase-3 and cleaved PARP.
For the cytotoxicity assays, target cells were labeled with 100 mCi ^51Cr for 1 hour at 37° C. and then washed 3 times before use. […] The cytotoxicity assays were performed in round bottom 96 well plates and the percent specific lysis was calculated as 100× (experimental cpm-spontaneous cpm)/(total cpm-spontaneous cpm). The role of Apo2L/TRAIL expressed by NK cells in the lysis of target cells was evaluated using anti-Apo2L/TRAIL mAbs (5C2 and 1D1, Genentech, Inc.). […]

[2] = test system: HCT116 cells; test: 51Cr release cytotoxicity assay on HCT116 target cells; assay type: cell-based
Experimental: (§2) Purified NK cells were treated with poly(I:C) or R-848 and incubated with B16BL10 melanoma cells (ATCC) at the indicated ratios. Purified NK cells stimulated with R-848 were incubated with HCT116 target cells (ATCC) at the indicated ratios. The role of Apo2L/TRAIL in lysis assays in panels B and C was determined by preincubation with neutralizing (5C2) and non-neutralizing (1D1) anti-Apo2L/TRAIL mAbs. The data has been confirmed with NK cells from at least 3 donors and less that 5% SD was observed.
(§3) For the cytotoxicity assays, target cells were labeled with 100 mCi ^51Cr for 1 hour at 37° C. and then washed 3 times before use. 10^4 target cells were added to varying numbers of effector cells at the indicated ratios and incubated in duplicate wells for 4 hours at 37° C., 5% CO2, and supernatants were used to determine ^51Cr released using a Gamma counter. The cytotoxicity assays were performed in round bottom 96 well plates and the percent specific lysis was calculated as 100× (experimental cpm-spontaneous cpm)/(total cpm-spontaneous cpm). The role of Apo2L/TRAIL expressed by NK cells in the lysis of target cells was evaluated using anti-Apo2L/TRAIL mAbs (5C2 and 1D1, Genentech, Inc.). Isotype control antibodies were obtained from BD Biosciences.

[3] = test system: 4T1 cells; test: 51Cr release cytotoxicity assay, purified human NK cells on 4T1 target cells; assay type: cell-based, mouse; conditions: for Lysis of 4T1 cells by NK cells treated with TLR activating agent: NK cells treated for 18 hours with agent, 4 hour incubation, E:T 1:1 to 50:1
Experimental: 4T1 cells (a metastatic mammary carcinoma cell line derived from BALE/C mice, obtained from Fred Miller, Karmanos Cancer Institute) were assayed in an in vitro cytotoxicity assay to examine tumoricical effects of various Toll receptor (“TLR”) activators and NK cells. The 4T1 target cells were cultured in IDMEM medium supplemented with 10% FCS, glutamine and penicillin/streptomycin, labeled with 100 mCi ^51Cr for 1 hour at 37° C. and then washed three times with culture medium.
To prepare purified effector NK cells for the assay, PBMCs from healthy human donors were isolated by standard density-gradient centrifugation over Ficoll-Paque Plus (Pharmacia). CD3 positive cells were first depleted using anti-CD3 microbeads (obtained from Miltenyi), and then the NK cells were purified using anti-CD56 microbeads (Miltenyi). The purity of the NK cell preparation was 95% or higher as determined by staining with mouse anti-human CD56 PE and mouse anti-human CD14 PE conjugates (BD Biosciences). The isolated cells were cultured in RPMI 1640 supplemented with heat inactivated 10% FCS, penicillin, streptomycin, 10 mM sodium pyruvate, 2 mM L-glutamine and 10 mM HEPES.
10^4 of the labeled 4T1 cells were added to varying numbers of purified NK cells (either untreated control NK cells or NK cells treated with specific agent) at ratios of 1:1, 3:1, 6:1, 12:1, 25:1, and 50:1, respectively. NK cells were treated for 18 hours with one of the following TLR activating agents: sBLP (1 μg/ml, Bachem); poly(I:C) (50 μg/ml, Pharmacia); E. coli 055:B5 LPS (phenol extracted, 1 μg/ml, Sigma); Flagellin (1 μg/ml, A. Gewirtz, Emory Univerity); R-848 (5 μg/ml, Invivogen); CpG oligonucleotides (2006 and 2216, 5 μM, Invivogen). The cytotoxicity assays were performed in round bottom 96 well plates, and the samples were incubated in duplicate wells for 4 hours at 37° C., 5% CO2. RPMI 1640 supplemented with heat inactivated 10% FCS, penicillin, streptomycin, 10 mM sodium pyruvate, 2 mM L-glutamine and 10 mM HEPES was used during incubation.
After the 4 hour incubation, supernatants were aspirated from the wells and examined for ^51Cr release using a Gamma counter. The percent specific lysis was calculated as 100× (experimental cpm-spontaneous cpm)/(total cpm-spontaneous cpm). The data are representative of at least three experiments and <5% SD was observed.
A cytotoxicity assay was performed as described in Example 1, except for the following modifications. Purified NK cells were treated with poly(I:C) or R-848 overnight and incubated with 4T1 cells. The role of TNF-alpha, FasL, and Apo2L/TRAIL was evaluated by preincubation of the NK cells with neutralizing antibodies to the respective ligands. The following neutralizing antibodies were added at final concentration of 2 μg/ml: anti-Fas-L (mIgG2b, R&D Systems), anti-TNF-alpha (mIgG1, Genentech), and anti-Apo2L/TRAIL (5C2, mIgG2a, ATCC HB-12258 and 1D1, mIgG2b; ATCC HB-12257). Isotype control antibodies were obtained from BD Biosciences.
as §3

[4] = test system: B16BL10 melanoma cells; test: 51Cr release cytotoxicity assay on B16 melanoma target cells; assay type: cell-based, mouse
Experimental: as §2, §3

[5] = test system: Apo2L/TRAIL mRNA in NK cells; test: RT-QPCR of Apo2L/TRAIL message in treated NK cells; assay type: cell-based, human
Experimental: In another experiment, the purified NK cells were treated for 18 hours in RPMI 1640 supplemented with heat inactivated 10% FCS, penicillin, streptomycin, 10 mM sodium pyruvate, 2 mM L-glutamine and 10 mM HEPES with poly(I:C) (50 μg/ml), R-848 (5 μg/ml) or hIFN-alpha (1000 U/ml, Sigma) in the presence or absence of 10 μg/ml cycloheximide and Apo2L/TRAIL was measured in the extracted RNA. RT-PCR was performed and the amount of cDNA was quantitated by RT-QPCR analysis, normalized to RPL19, and fold induction over control is shown in FIG. 2A. Primers were designed as per instructions (Primer Express) and sequences are: hRPL19-probe: […] (SEQ ID NO:7); hRPL19-For: […] (SEQ ID NO:8); hRPL19-Rev: […] (SEQ ID NO:9); hApo2L-probe: […] (SEQ ID NO:10); hApo2L-For: […] (SEQ ID NO:11); hApo2L-Rev: […] (SEQ ID NO:12). cDNA was analyzed for expression of RPL19 and Apo2L/TRAIL by RT-QPCR (Applied Biosystems) as described in Zarember et al., J. Immunol., 168(2):554-61 (2002). Fold increase values are expressed as arbitrary units, relative to the calibrator gene RPL19.

[6] = test system: cell surface Apo2L/TRAIL on NK cells; test: Flow cytometry of cell surface Apo2L/TRAIL on purified NK cells; assay type: cell-based, human; conditions: 5C2-Alexa 488 staining
Experimental: Cell surface Apo2L/TRAIL on purified NK cells treated with poly(I:C), R-848 or hIL-2 (30 ng/ml, BD Biosciences) was also analyzed by cytometry. Isotype control (IgG2a, Sigma) and anti-Apo2L/TRAIL antibody (5C2) were labeled with Alexa 488 (Molecular Probes). 5×10^5 cells were incubated with 2 μg of human IgG to block FcRs and 1 μg of the directly labeled mAbs at 4° C. for 45 minutes, followed by 2 washes. Stained cells were analyzed using a FACScan cytometer (Becton Dickenson) and Cellquest software.

[7] = test system: SKMES-1 cells; test: 51Cr release by SKMES-1 cells incubated with soluble Apo2L/TRAIL; assay type: cell-based; conditions: range of concentrations, 4 hours
Experimental: The role of Apo2L/TRAIL was evaluated by preincubation of NK cells with either a neutralizing (5C2) or non-neutralizing (1D1) mAb. The % lysis was plotted, and the results are representative of 3 experiments (less than 5% SD was observed). […] The supernatants were then assessed for Cr release. Similar cytolysis results were obtained in at least 3 experiments.
as §3

[8] = test system: 4T1 cells; test: Clonogenic potential of 4T1 cells; assay type: cell-based, mouse
Experimental: Since both cell surface Apo2L/TRAIL and perforin granules are essential for lysis of 4T1 cells, assays were conducted to examine if resting NK cells could be “armed” by the addition of soluble Apo-2L/TRAIL protein. There is precedence for membrane bound and soluble forms of TNF family members to display differential behavior upon application to the target cell. With the aim of corroborating the ^51Cr release assays, the clonogenic potential of 4T1 cells was evaluated by treatment with soluble Apo2L/TRAIL and resting NK cells.

[9] = test system: C57MG; test: 51Cr release cytotoxicity assay on C57MG cells; assay type: cell-based, mouse
[10] = test system: caspase-3 and PARP cleavage in 4T1 cells; test: Immunoblot for caspase-3 and PARP cleavage in 4T1 cells; assay type: cell-based, mouse
Experimental: as §1
4T1 cells were treated with Apo2L/TRAIL, resting NK cells (“NK”) or activated NK cells (“Act NK”) separately or in combination. The lysates were analyzed for cleavage of PARP, an indicator of caspase-3 activation. NK cells from multiple donors were utilized and results from one representative donor are shown. […]
Total cell extracts were prepared from 4T1 cells using lysis buffer (0.1 M Tris pH 8.0, 500 mM NaCl, 2 mM EDTA, […], 10% glycerol, supplemented with Complete Protease Inhibitor Cocktail, Roche), and the lysates were clarified by centrifugation at 16,000 rpm for 10 minutes at 4° C. […] Immune complexes were detected using enhanced chemiluminesence (Amersham).

C/C=C/[C@H]1O[C@@](O)([C@@H](C)[C@H](O)[C@H](C)[C@H]2OC(=O)/C(OC)=C/C(C)=C/[C@@H](C)[C@@H](O)[C@@H](CC)[C@@H](O)[C@H](C)C/C(C)=C/C=C/[C@@H]2OC)C[C@@H](O[C@H]2C[C@@H](O)[C@H](OC(N)=O)[C@@H](C)O2)[C@@H]1C [Concanamycin A]
Effect of inhibitor treatment of activated NK cells on lysis of 4T1 cells [1]: blocked the cytotoxic activity

CCOCc1nc2c(N)nc3ccccc3c2n1CC(C)(C)O [R-848]
Cytotoxicity of stimulated NK cells towards HCT116 cells ([2]; NK cells stimulated with agent): increased cytoxicity | Lysis of 4T1 cells by NK cells treated with TLR activating agent [3]: efficiently killed | Killing of B16 melanoma cells by stimulated NK cells ([4]; NK cells stimulated with agent): efficiently killed | Increase of Apo2L/TRAIL mRNA over control ([5]; NK cells treated 18 hours, normalized to RPL19): 25 fold | Cell surface expression of Apo2L/TRAIL on NK cells [6]: detectable cell surface expression

C[C@@H]1C[C@@H]([C@H](O)CC2CC(=O)NC(=O)C2)C(=O)[C@@H](C)C1 [cycloheximide]
Effect of protein synthesis inhibitor on induction of Apo2L/TRAIL message in stimulated NK cells ([5]; 10 μg/ml cycloheximide, poly(I:C), R-848 or IFN-alpha stimulated): not blocked

Apo2L/TRAIL: recombinant Apo2L/TRAIL (amino acids 114-281), prepared as in Ashkenazi et al. 1999
Cytotoxic effect on HCT116 cells, Apo2L/TRAIL with limiting ratios of resting NK cells ([2]; 5 ng/ml Apo2L/TRAIL plus resting NK cells): enhanced cytotoxic effect | Lysis of HCT116 cells by Apo2L/TRAIL alone ([2]; 5 ng/ml Apo2L/TRAIL, no NK cells): no lysis | 51Cr release by HCT-116 cells, Apo2L/TRAIL alone ([2]; range of concentrations, 4 hours): effectively mediated release | 51Cr release by SKMES-1 cells, Apo2L/TRAIL alone [7]: effectively mediated release | Clones of 4T1 cells, simultaneous soluble Apo2L/TRAIL and resting NK cells ([8]; NK cells at ratio 25 to 1, after 5 days): dramatic reduction in clones | Clonogenic capacity of 4T1 cells, soluble Apo2L/TRAIL alone ([8]; individual treatment): not affected in terms of clonogenic capacity | Lysis of C57MG cells, Apo2L/TRAIL added to activated NK cells ([9]; plus activated NK cells): no significant increase | Lysis of C57MG cells, Apo2L/TRAIL added to resting NK cells ([9]; plus resting NK cells): increased the lysis observed | Cleavage of pro-caspase-3 and PARP in 4T1 cells, Apo2L/TRAIL alone ([10]; 100 ng/ml, 30 minutes, 1 hour or 4 hours): did not result in cleavage | PARP cleavage in 4T1 cells, resting NK cells along with soluble Apo2L/TRAIL ([10]; combined treatment): production of cleaved PARP | Lysis of 4T1 cells, Apo2L/TRAIL with resting NK cells ([3]; increasing concentrations of Apo2L/TRAIL plus resting NK cells): dose dependent lysis | Lysis of 4T1 cells, Apo2L/TRAIL added to activated NK cells ([3]; plus activated NK cells): Some increase | Lysis of 4T1 cells by Apo2L/TRAIL protein alone ([3]; range of concentrations, up to 2 μg/ml, no NK cells): resistant to lysis; also recorded: certain resistance | Lysis of B16BL10 cells, Apo2L/TRAIL added to activated NK cells ([4]; plus activated NK cells): no significant increase | Lysis of B16BL10 cells, Apo2L/TRAIL added to resting NK cells ([4]; plus resting NK cells): increased the lysis observed | Apoptotic effect of Apo2L/TRAIL protein alone on B16 cells ([4]; range of concentrations, no NK cells): certain resistance

Cbz-Ala-Ala-Asp-CH2F [GraB inhibitor]
Effect of inhibitor treatment of activated NK cells on lysis of 4T1 cells [1]: reduction in lysis

Flagellin
Lysis of 4T1 cells by NK cells treated with TLR activating agent [3]: neither BLP, LPS, Flagellin, nor the CpG oligonucleotides induced cytotoxic activity

— patent US20080199423A1, “Methods of Using Apo2l Receptor Agonists and Ink Cell Activators” (GENENTECH, INC., priority 2004, published 2008)
